Data: US20230000869A1, “NOVEL ALK2 INHIBITORS AND METHODS FOR INHIBITING BMP SIGNALING” (The Brigham and Women's Hospital, Inc., priority 2017, published 2023)

Columns and labels:
TGFβ = assay: Luciferase reporter gene assay for TGFβ activity (HEK293T SBE-Luc SMAD2/3 reporter, TGFβ agonist); type: cell-based; conditions: TGFβ 5 ng/mL
In short: (§1)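 TGFβ activity was measured in HEK293T SBE-Luc cells stimulated with 5 ng/mL TGFβ, at compound 10000-30 nM final. ALK2 activity was measured in C2C12 BRE-Luc cells stimulated with 50 ng/mL BMP6, at compound 1000-0.3 nM final. Compound was preincubated 45 min in 2% FBS medium; after ≥18 h agonist exposure, luminescence was read and inhibition expressed as % signal loss versus background-subtracted agonist controls.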

ALK2 = biological target: T1, ALK2 (Mus musculus, UniProt P37172); assay: Luciferase reporter gene assay for ALK2 activity (C2C12 BRE-Luc SMAD1/5/8 reporter, BMP6 agonist); type: cell-based; conditions: BMP6 50 ng/mL
T1 construct: endogenous in cells; host or cells: C2C12-BRE (BRE-Luc reporter line, G418 selection)
T1 sequence (P37172 21-509): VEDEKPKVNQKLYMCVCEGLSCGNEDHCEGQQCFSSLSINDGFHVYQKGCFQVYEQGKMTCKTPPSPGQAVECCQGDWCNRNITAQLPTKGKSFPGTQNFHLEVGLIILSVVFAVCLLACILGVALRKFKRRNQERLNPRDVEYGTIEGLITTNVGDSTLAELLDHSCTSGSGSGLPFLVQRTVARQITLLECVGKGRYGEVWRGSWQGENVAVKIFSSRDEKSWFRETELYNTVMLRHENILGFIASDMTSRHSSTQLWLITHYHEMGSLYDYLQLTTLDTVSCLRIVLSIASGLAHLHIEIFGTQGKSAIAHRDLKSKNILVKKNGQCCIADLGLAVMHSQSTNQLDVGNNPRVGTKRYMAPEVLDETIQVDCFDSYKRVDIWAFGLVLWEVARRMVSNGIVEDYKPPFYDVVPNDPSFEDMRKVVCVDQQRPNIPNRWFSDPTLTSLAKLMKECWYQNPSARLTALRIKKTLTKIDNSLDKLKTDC
In short: as §1

| SMILES | IC50 (TGFβ; Homo sapiens, HEK-293T) [nM] | IC50 (ALK2) [nM] | IC50 (TGFβ) [nM] |
| --- | --- | --- | --- |
| COc1cc2c(-c3cnn4cc(N5CCC(N6CCC(N(C)C)C6)CC5)cnc34)ccnc2cc1F (centres unmarked) [Compound 190] | 128 | 31 | – |
| CN1CCN(C2CCN(c3cnc4c(-c5ccnc6cc7c(cc56)OCO7)cnn4c3)CC2)CC1 [Compound 18] | 176 | 29 | – |
| COc1cc2c(-c3cnn4cc(N5CCC(N6C[C@H]7C[C@@H]6CN7)CC5)cnc34)ccnc2cc1F [Compound 54] | 539 | 71 | – |
| COc1cc2c(-c3cnn4cc(N5CCN(c6ccnc(C)n6)CC5)cnc34)ccnc2cc1F [Compound 203] | > 3000 | 26 | – |
| COc1cc2c(-c3cnn4cc(N5CCC(N6CC7CCC(C6)N7)CC5)cnc34)ccnc2cc1F [Compound 52] | 358 | 29 | – |
| COc1cc2c(-c3cnn4cc(N5CCNCC5=O)cnc34)ccnc2cc1F [Compound 326] | > 3000 | > 1000 | – |
| COc1cc2c(-c3cnn4cc(N5CCC(N6CCN(C)CC6)CC5)cnc34)ccnc2cc1Cl [Compound 28] | 248 | 72 | – |
| COc1cc2c(-c3cnn4cc(N5CCC(N6CC7CCC(C6)N7C)CC5)cnc34)ccnc2cc1F [Compound 53] | 198 | 9 | – |
| Cc1cc(-c2cnn3cc(N4CCN(C5(C)CCNCC5)CC4)cnc23)c2ccccc2n1 [Compound 33] | 37 | 94 | – |
| COc1cc2c(-c3cnn4cc(N5CCC(C)(N6CCN(C)CC6)CC5)cnc34)ccnc2cc1F [Compound 57] | > 1000 | 207 | – |
| CCOc1ccc2nccc(-c3cnn4cc(N5CCC(N6CCN(C)CC6)CC5)cnc34)c2c1 [Compound 21] | 1280 | 27 | – |
| COc1cc2c(-c3cnn4cc(N5CCN(c6nnc(C)s6)CC5)cnc34)ccnc2cc1F [Compound 204] | > 3000 | 11 | – |
| COc1cc2c(-c3cnn4cc(N5CCC(N6CCCN(C)CC6)CC5)cnc34)ccnc2cc1F [Compound 42] | 59 | 9 | – |
| CN1CCN(C2CCN(c3cnc4c(-c5ccnc6cccnc56)cnn4c3)CC2)CC1 [Compound 205] | > 3000 | 593 | – |
| CC(=O)N1CCC(N2CCN(c3cnc4c(-c5cc(C)nc6ccccc56)cnn4c3)CC2)CC1 [Compound 24] | 56 | 223 | – |
| Cc1cc(-c2cnn3cc(N4CCC(N)CC4)cnc23)c2ccccc2n1 [Compound 187] | 32 | 37 | – |
| COc1cc2c(-c3cnn4cc(N5CCC(C(C)(C)N)CC5)cnc34)ccnc2cc1F [Compound 211] | 416 | 51 | – |
| Cc1cc(-c2cnn3cc(N4CC(c5ccncc5)C4)cnc23)c2ccccc2n1 [Compound 210] | 91 | 17 | – |
| COc1cc2c(-c3cnn4cc(N5CCN(C6CN(C)C6)CC5)cnc34)ccnc2cc1F [Compound 199] | 498 | 23 | – |
| CN1CCN(C2CCN(c3cnc4c(-c5cccc(P(C)(C)=O)c5)cnn4c3)CC2)CC1 [Compound 64] | > 3000 | 28 | – |
| Cn1cc(-c2cnn3cc(N4CCC(N5CCOCC5)CC4)cnc23)c2ccccc2c1=O [Compound 32] | 37 | 25 | – |
| CN1CCN(C2CCN(c3cnc4c(-c5cccc6c(C(N)=O)cccc56)cnn4c3)CC2)CC1 [Compound 10] | 76 | 41 | – |
| COc1cc2c(-c3cnn4cc(N5CCC(N6CCOCC6)CC5)cnc34)ccnc2cc1F [Compound 16] | 20 | 8 | – |
| COc1cc2c(-c3cnn4cc(N5CCC(N6CC[N+](C)(C)CC6)CC5)cnc34)ccnc2cc1F [Compound 44] | 210 | > 3000 | – |

Now from value to compound:

| IC50 (TGFβ; Homo sapiens, HEK-293T) [nM] | IC50 (ALK2) [nM] | IC50 (TGFβ) [nM] | SMILES |
| --- | --- | --- | --- |
| 723 | 178 | – | COc1cc2c(-c3cnn4cc(N5CCC(N6CCN(C)CC6)CC5)cnc34)cc[n+]([O-])c2cc1F [Compound 324] |
| > 3000 | 381 | – | CN1CCN(C2CCN(c3cnc4c(-c5ccnc(N6CCOCC6)c5)cnn4c3)CC2)CC1 [Compound 219] |
| 595 | 159 | – | Cc1ccc2nccc(-c3cnn4cc(N5CC(c6ccncc6)C5)cnc34)c2c1 [Example 292] |
| 27 | 8 | – | COc1cc(F)c2nccc(-c3cnn4cc(N5CC(N6CCN(C)CC6)C5)cnc34)c2c1 [Compound 314] |
| 760 | 38 | – | CS(=O)(=O)c1cccc(-c2cnn3cc(N4CCNCC4)cnc23)c1 [Compound 212] |
| > 1000 | 55 | – | CNc1ccc2nccc(-c3cnn4cc(N5CCC(N6CCN(C)CC6)CC5)cnc34)c2c1 [Compound 279] |
| 12 | 85 | – | CN1CCN(C2CCN(c3cnc4c(-c5ccnc6ccc(OC(F)(F)F)cc56)cnn4c3)CC2)CC1 [Compound 252] |
| 383 | 18 | – | CN1CCN(C2CCN(c3cnc4c(-c5ccnc6cc(F)c(N)cc56)cnn4c3)CC2)CC1 [Compound 264] |
| 306 | 175 | – | CN1CCN(C2CCN(c3cnc4c(-c5cc(C(F)F)nc6ccccc56)cnn4c3)CC2)CC1 [Compound 238] |
| 277 | 6 | – | COc1ccc2nccc(-c3cnn4cc(N5CC(N6CCN(C)CC6)C5)cnc34)c2c1 [Compound 221] |
| > 1000 | 193 | – | CN1CCN(C2CCN(c3cnc4c(-c5ccnc6c5ccn6C)cnn4c3)CC2)CC1 [Compound 253] |
| 975 | 477 | – | Cc1cc(-c2cnn3cc(N4CC(OCCN(C)C)C4)cnc23)c2ccccc2n1 [Compound 350] |
| > 1000 | 194 | – | COc1cc2c(-c3cnn4cc(N5CCC(N6CCN(C)C(=O)C6)CC5)cnc34)ccnc2cc1F [Compound 323] |
| > 1000 | > 1000 | – | CN1CCN(C2CCN(c3cnc4c(-c5cnn(C)c5)cnn4c3)CC2)CC1 [Compound 246] |
| 389 | 13 | – | Cc1cc(-c2cnn3cc(N4CC5(CC(N)C5)C4)cnc23)c2ccccc2n1 [Example 295] |
| > 2000 | > 1000 | – | CN1CCN(C2CCN(c3cnc4c(-c5cccc6[nH]ncc56)cnn4c3)CC2)CC1 [Compound 243] |
| 63 | 12 | – | COc1cc2c(-c3cnn4cc(N5CCC6(CC5)CN(C)C6)cnc34)ccnc2cc1F [Compound 290] |
| 468 | > 1000 | – | Cc1cc(-c2cnn3cc(N4CCC(N5CCN(C)CC5)CC4)cnc23)c2ccc(C(F)(F)F)cc2n1 [Compound 245] |
| 72 | 133 | – | Cc1cc(-c2cnn3cc(N4CCC(N5CCN(C)CC5)CC4)cnc23)c2cc(F)ccc2n1 [Compound 275] |
| – | 24 | 44 | COc1cc2c(-c3cnn4cc(N5CCC6(CC5)CN(C)C6)cnc34)ccnc2cc1F [Compound 216] |
| < 1 | 9 | – | Cc1cc(-c2cnn3cc(N4CC5(CC(N(C)C)C5)C4)cnc23)c2ccccc2n1 [Compound 337] |
| 826 | 903 | – | Cc1cc2nccc(-c3cnn4cc(N5CCC(N6CCN(C)CC6)CC5)cnc34)c2[nH]1 [Compound 227] |
| 240 | 6 | – | CN1CCN(C2CCN(c3cnc4c(-c5cc(C#N)nc6ccccc56)cnn4c3)CC2)CC1 [Compound 237] |
| > 1000 | 98 | – | Cc1cc(-c2cnn3cc(N4CCC(N5CCN(C)CC5)CC4)cnc23)c2cccc(C(F)(F)F)c2n1 [Compound 268] |
| > 3000 | 13 | – | CN1CCN(C2CCN(c3cnc4c(-c5ccnc6[nH]ccc56)cnn4c3)CC2)CC1 [Compound 247] |
| > 3000 | 2 | – | CN1CCN(C2CN(c3cnc4c(-c5ccncc5)cnn4c3)C2)CC1 [Compound 313] |
| 605 | 476 | – | CN1CCN(C2CCN(c3cnc4c(-c5ccnc6cc[nH]c56)cnn4c3)CC2)CC1 [Compound 228] |
| > 1000 | > 1000 | – | COc1cc2c(-c3c(N)nn4cc(N5CCC(N6CCN(C)CC6)CC5)cnc34)ccnc2cc1F [Compound 214, 3-(7-fluoro-6-methoxy-4-quinolyl)-6-[4-(4-methylpiperazin-1-yl)-1-piperidyl]pyrazolo[1,5-a]pyrimidin-2-amine] |
